We go through eight molecules from PubChem BioAssay AID1259411 (Chemical Carcinogenesis Research Information System (CCRIS), 2018).

The test system of the data set is rodent carcinogenicity bioassays, tumor incidence. As to the kind of experiment: CCRIS carcinogenicity studies. Put shortly: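 NCI-built, expert-reviewed records of carcinogenicity and related test outcomes (mutagenicity, tumor promotion/inhibition) compiled from published and report sources, historical span 1985-2011, not updated.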

Active and inactive are the calls of the source. No rule for the calls is given here.

`C[C@]12CC[C@H]3C(=CCc4cc(OS(=O)(=O)O)ccc43)[C@@H]1CCC2=O`: for the setting “Species: HAMSTER, Strain/Sex: SYRIAN/MALE, Route: SUBCUTANEOUS IMPLANT, Dose: 0, 20 MG IN PELLETS IMPLANTED EVERY 2.5 MO FOR 9 MO (STUDY DURATION: 9 MO), Tumor Site: Type of Lesion: KIDNEY: TUMOR”, the carcinogen call is “active; positive”.
As for `COc1ccc(CN(CCN(C)C)c2ccccn2)cc1`, the carcinogen call (Species: MOUSE, Strain/Sex: B6C3F1/FEMALE, Route: ORAL, Dose: 0, 150, 750, 1500 PPM IN DIET FOR 103 WK (STUDY DURATION: 103 WK), Dose: 0, 150, 750, 1500 PPM IN DIET FOR 103 WK (STUDY DURATION: 103 WK)) is “inactive; negative”; the carcinogen call (Species: MOUSE, Strain/Sex: B6C3F1/MALE, Route: ORAL, Dose: 0, 150, 750, 1500 PPM IN DIET FOR 103 WK (STUDY DURATION: 104 WK), Dose: 0, 150, 750, 1500 PPM IN DIET FOR 103 WK (STUDY DURATION: 104 WK)) was “inactive; negative”; the carcinogen call (Species: RAT, Strain/Sex: F344/FEMALE, Route: ORAL, Dose: 0, 300, 1500, 3000 PPM IN DIET FOR 2 YR (STUDY DURATION: 2 YR), Dose: 0, 300, 1500, 3000 PPM IN DIET FOR 2 YR (STUDY DURATION: 2 YR)) was “inactive; negative”; the carcinogen call (Species: RAT, Strain/Sex: F344/FEMALE, Route: ORAL, Dose: 0, 2000 PPM IN DIET (TOTAL DOSE: 120 G/KG) FOR 110 WK (STUDY DURATION: 133 WK)) was “inactive; negative”; the carcinogen call (Species: RAT, Strain/Sex: F344/FEMALE, Route: ORAL, Dose: 0, 2000 PPM IN DRINKING WATER (0.2%) 5 D/WK FOR 110 WK (TOTAL DOSE: 88 G/KG) (STUDY DURATION: 133 WK)) is “inactive; negative”; the carcinogen call (Species: RAT, Strain/Sex: F344/MALE, Route: ORAL, Dose: 0, 300, 1500, 3000 PPM IN DIET FOR 2 YR (STUDY DURATION: 2 YR), Dose: 0, 300, 1500, 3000 PPM IN DIET FOR 2 YR (STUDY DURATION: 2 YR)) was “inactive; negative”. For the same molecule, the carcinogen call was “inactive; negative” (Species: RAT, Strain/Sex: F344/MALE, Route: ORAL, Dose: 0, 2000 PPM (0.2%) IN DRINKING WATER 5 D/WK FOR 110 WK (TOTAL DOSE: 55 G/KG) (STUDY DURATION: 133 WK)); “inactive; negative” (Species: RAT, Strain/Sex: F344/MALE, Route: ORAL, Dose: O, 2000 PPM IN DIET (TOTAL DOSE: 110 G/KG) FOR 110 WK (STUDY DURATION: 133 WK)); “inactive; negative” (Species: RAT, Strain/Sex: SPRAGUE-DAWLEY/FEMALE, Route: ORAL, Dose: 0, 500, 1000 PPM IN DRINKING WATER 5D/WK FOR LIFE (STUDY DURATION: 549-745 D), Dose: 0, 500, 1000 PPM IN DRINKING WATER 5D/WK FOR LIFE (STUDY DURATION: 549-745 D)); “inactive; negative” (Species: RAT, Strain/Sex: SPRAGUE-DAWLEY/MALE, Route: ORAL, Dose: 0, 500, 1000 PPM IN DRINKING WATER 5D/WK FOR LIFE (STUDY DURATION: 496-611 D), Dose: 0, 500, 1000 PPM IN DRINKING WATER 5D/WK FOR LIFE (STUDY DURATION: 496-611 D)).
With `C=C(C#N)C(=O)O`, the carcinogen call (Species: RAT, Strain/Sex: F344/FEMALE, Route: SUBCUTANEOUS IMPLANT, Dose: 0.12 G INJECTED INTO 2 SITES ON THE LATERAL ABDOMEN, 2 SITES ON THE LATERAL CHEST REGION AND 1 SITE ON THE BACK (STUDY D, Tumor Site: Type of Lesion: IMPLANT SITE: MALIGNANT HISTIOCYTOMA) is “active; positive”.
As for `Cc1c([N+](=O)[O-])c(C)c([N+](=O)[O-])c(C(C)(C)C)c1[N+](=O)[O-]`, the carcinogen call (Species: MOUSE, Strain/Sex: B6C3F1/FEMALE, Route: ORAL, Dose: 0, 0.075, 0.15% IN DIET FOR 80 WK (STUDY DURATION: 80 WK), Dose: 0, 0.075, 0.15% IN DIET FOR 80 WK (STUDY DURATION: 80 WK), Tumor Site: Type of Lesion: LIVER: ADENOMA) was “active; positive” and the carcinogen call (Species: MOUSE, Strain/Sex: B6C3F1/MALE, Route: ORAL, Dose: 0, 0.075, 0.15% IN DIET FOR 80 WK (STUDY DURATION: 80 WK), Dose: 0, 0.075, 0.15% IN DIET FOR 80 WK (STUDY DURATION: 80 WK), Tumor Site: Type of Lesion: LIVER: ADENOMA, CARCINOMA, HARDERIAN GLAND: ADENOMA) was “active; positive”.
Take `OC(c1ccc(Cl)cc1)(c1cncnc1)c1ccccc1Cl` (stereo unspecified): the carcinogen call was “inactive; negative (nonstatistical increase in hepatocellular adenomas)” (Species: Rat, Strain/Sex: Wistar/Female (120/Control group; 80/Experimental group), Route: Oral, Dose: 0, 50, 130, 350 ppm in diet for 24 mo, study duration 24 mo, Dose: 0, 50, 130, 350 ppm in diet for 24 mo, study duration 24 mo) and “inactive; negative (nonstatistical increase in hepatocellular adenomas)” (Species: Rat, Strain/Sex: Wistar/Male (120/Control group; 80/Experimental group), Route: Oral, Dose: 0, 50, 130, 350 ppm in diet for 24 mo, study duration 24 mo, Dose: 0, 50, 130, 350 ppm in diet for 24 mo, study duration 24 mo).
As for `O=[N+]([O-])c1cccc2c1ccc1c3ccccc3ccc21`, the carcinogen call was “inactive; negative” (Species: MOUSE, Strain/Sex: ICR/FEMALE, Route: INTRAPERITONEAL, Dose: 0, 100 NMOL (TOTAL DOSE) ADMINISTERED IN 3 SUBDOSES OF 1/7, 2/7, AND 4/7 ON DAYS 1, 8 AND 15 OF LIFE, RESPECTIVELY (STUD) and “inactive; negative” (Species: MOUSE, Strain/Sex: ICR/MALE, Route: INTRAPERITONEAL, Dose: 0, 100 NMOL (TOTAL DOSE) ADMINISTERED IN 3 SUBDOSES OF 1/7, 2/7, AND 4/7 ON DAYS 1, 8 AND 15 OF LIFE, RESPECTIVELY (STUD).
Regarding `Cc1ncc[nH]1`, the carcinogen call runs as follows: (Species: MOUSE, Strain/Sex: B6C3F1/FEMALE, Route: ORAL (DIET), Dose: 0, 625, 1250, 2500 PPM FOR 105 WKS (STUDY DURATION: 105 WKS), Dose: 0, 625, 1250, 2500 PPM FOR 105 WKS (STUDY DURATION: 105 WKS), Tumor Site: Type of Lesion: LIVER: HEPATOCELLULAR ADENOMA) “active; positive”; (Species: MOUSE, Strain/Sex: B6C3F1/MALE, Route: ORAL (DIET), Dose: 0, 625, 1250, 2500 PPM FOR 105 WKS (STUDY DURATION: 105 WKS), Dose: 0, 625, 1250, 2500 PPM FOR 105 WKS (STUDY DURATION: 105 WKS), Tumor Site: Type of Lesion: LIVER: HEPATOCELLULAR ADENOMA OR CARCINOMA, THYROID: FOLLICULAR CELL ADENOMA) “active; positive”; (Species: RAT, Strain/Sex: F344/N/FEMALE, Route: ORAL (DIET), Dose: 0, 1000, 2500, 5000 PPM FOR 106 WKS (STUDY DURATION: 106 WKS), Dose: 0, 1000, 2500, 5000 PPM FOR 106 WKS (STUDY DURATION: 106 WKS), Tumor Site: Type of Lesion: THYROID: FOLLICULAR CELL ADENOMA OR CARCINOMA) “active; positive”; (Species: RAT, Strain/Sex: F344/N/MALE, Route: ORAL (DIET), Dose: 0, 300, 1000, 3000 PPM FOR 106 WKS (STUDY DURATION: 106 WKS), Dose: 0, 300, 1000, 3000 PPM FOR 106 WKS (STUDY DURATION: 106 WKS)) “inactive; negative”.
As to `COc1cc(OC)nc(NC(=O)NS(=O)(=O)c2c(Cl)nc3ccccn23)n1`, the carcinogen call (Species: Mouse, Strain/Sex: CD-1/Female (50/Group), Route: Oral, Dose: 0, 86.8, 870.0, 10,303.5 mg/kg/day of 99.6-99.8% imazosulfuron in diet for 18 mo, study duration 18 mo, Dose: 0, 86.8, 870.0, 10,303.5 mg/kg/day of 99.6-99.8% imazosulfuron in diet for 18 mo, study duration 18 mo) is “inactive; negative”; the carcinogen call (Species: Mouse, Strain/Sex: CD-1/Male (50/Group), Route: Oral, Dose: 0, 72.7, 741.3, 7848.1 mg/kg/day of 99.6-99.8% imazosulfuron in diet for 18 mo, study duration 18 mo, Dose: 0, 72.7, 741.3, 7848.1 mg/kg/day of 99.6-99.8% imazosulfuron in diet for 18 mo, study duration 18 mo) was “inactive; negative”; the carcinogen call (Species: Rat, Strain/Sex: CD (Sprague-Dawley derived)/Female (50/Group), Route: Oral, Dose: 0, 12.94, 132.46, 1554.35 mg/kg/day of 99.6-99.8% imazosulfuron in diet for 24 mo, study duration 24 mo, Dose: 0, 12.94, 132.46, 1554.35 mg/kg/day of 99.6-99.8% imazosulfuron in diet for 24 mo, study duration 24 mo) was “inactive; negative”; the carcinogen call (Species: Rat, Strain/Sex: CD (Sprague-Dawley derived)/Male (50/Group), Route: Oral, Dose: 0, 10.39, 106.10, 1123.99 mg/kg/day of 99.6-99.8% imazosulfuron in diet for 24 mo, study duration 24 mo, Dose: 0, 10.39, 106.10, 1123.99 mg/kg/day of 99.6-99.8% imazosulfuron in diet for 24 mo, study duration 24 mo) is “inactive; negative”.
